According to US12539292B2, “BRM targeting compounds and associated methods of use” (Arvinas Operations, Inc., priority 2018, dated 2026):
Read-outs that look alike come from different tables or passages of the source.

Target: T1, BRM (Homo sapiens, UniProt P51531)
T1 construct: In-Cell Western Screen of BRM Degradation in SW1573 Cells; endogenous in cells; host or cells: SW1573
Test: In-cell Western screen of BRM degradation in SW1573 cells (Dmax and DC50)
Format: cell-based
Outline: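 Near-infrared imaging on a LI-COR Odyssey (800 and 680 nm channels) quantifies BRM remaining in fixed SW1573 cells. Cells are dosed for 18-20 h at 0.1% final DMSO, and degradation is expressed as Dmax and DC50.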

[1] = BRM degradation, SW1573 cells, read-out: DC50
[2] = BRM degradation, SW1573 cells, read-out: Dmax (% degraded)
[3] = BRM degradation, SW1573 cells, tested at the top concentration of between 0.3 and 10 μM, read-out: Dmax (%) (% degraded)
[4] = BRM degradation, SW1573 cells, when tested at the top concentration of between 0.3 and 10 μM, read-out: Dmax (%) (% degraded)

T1 sequence (P51531 whole entry): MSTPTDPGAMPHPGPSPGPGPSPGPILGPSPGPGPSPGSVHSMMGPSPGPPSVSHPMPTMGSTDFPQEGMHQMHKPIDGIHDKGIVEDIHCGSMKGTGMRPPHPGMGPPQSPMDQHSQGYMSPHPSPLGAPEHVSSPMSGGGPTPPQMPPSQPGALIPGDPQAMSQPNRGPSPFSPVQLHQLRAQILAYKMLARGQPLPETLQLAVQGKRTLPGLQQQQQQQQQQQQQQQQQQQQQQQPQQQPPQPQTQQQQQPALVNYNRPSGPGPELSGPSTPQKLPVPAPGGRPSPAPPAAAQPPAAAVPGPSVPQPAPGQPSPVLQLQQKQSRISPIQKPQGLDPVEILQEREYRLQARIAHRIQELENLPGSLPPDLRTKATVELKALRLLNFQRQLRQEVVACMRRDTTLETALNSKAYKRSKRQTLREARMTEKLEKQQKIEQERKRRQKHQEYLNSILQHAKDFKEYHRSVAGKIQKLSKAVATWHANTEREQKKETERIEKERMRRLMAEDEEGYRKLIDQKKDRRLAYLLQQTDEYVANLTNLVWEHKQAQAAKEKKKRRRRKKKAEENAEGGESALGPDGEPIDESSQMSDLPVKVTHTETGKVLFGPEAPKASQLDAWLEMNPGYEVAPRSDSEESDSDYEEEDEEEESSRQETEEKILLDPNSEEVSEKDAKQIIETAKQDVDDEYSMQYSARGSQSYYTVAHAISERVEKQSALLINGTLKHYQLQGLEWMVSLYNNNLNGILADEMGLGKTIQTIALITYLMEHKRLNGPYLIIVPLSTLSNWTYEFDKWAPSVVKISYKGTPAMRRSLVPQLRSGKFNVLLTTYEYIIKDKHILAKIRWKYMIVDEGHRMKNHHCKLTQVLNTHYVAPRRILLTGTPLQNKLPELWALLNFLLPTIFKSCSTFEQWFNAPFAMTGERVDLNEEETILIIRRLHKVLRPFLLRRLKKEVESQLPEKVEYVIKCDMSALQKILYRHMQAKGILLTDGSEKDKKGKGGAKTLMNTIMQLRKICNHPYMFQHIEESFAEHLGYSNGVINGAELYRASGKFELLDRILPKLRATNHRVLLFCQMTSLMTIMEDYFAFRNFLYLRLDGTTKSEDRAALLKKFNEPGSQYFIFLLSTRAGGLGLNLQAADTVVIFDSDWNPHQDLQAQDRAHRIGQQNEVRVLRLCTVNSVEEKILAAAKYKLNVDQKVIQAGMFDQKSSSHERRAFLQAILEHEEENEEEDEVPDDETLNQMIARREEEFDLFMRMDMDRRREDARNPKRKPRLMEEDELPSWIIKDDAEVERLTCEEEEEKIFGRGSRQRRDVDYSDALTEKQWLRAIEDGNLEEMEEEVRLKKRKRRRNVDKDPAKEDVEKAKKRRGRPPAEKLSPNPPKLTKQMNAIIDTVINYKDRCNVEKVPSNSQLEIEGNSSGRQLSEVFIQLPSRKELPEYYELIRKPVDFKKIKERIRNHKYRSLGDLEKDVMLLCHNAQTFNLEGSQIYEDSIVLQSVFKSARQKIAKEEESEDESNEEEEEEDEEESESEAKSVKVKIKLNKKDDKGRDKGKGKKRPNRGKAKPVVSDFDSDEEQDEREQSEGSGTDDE

SMILES | DC50 [1] | Dmax [3] | other results
Cc1ncsc1-c1ccc([C@H](C)NC(=O)[C@@H]2C[C@@H](O)CN2C(=O)[C@@H](c2cc(N3CCC(CN4CCC(O[C@H]5C[C@H](Oc6cc(/C=C/c7cc(-c8ccccc8O)nnc7N)ccn6)C5)CC4)CC3)no2)C(C)C)cc1 [compound 626, (2S,4R)-1-((R)-2-(3-(4-((4-((1r,3r)-3-((4-((E)-2-(3-amino-6-(2-hydroxyphenyl)pyridazin-4-yl)vinyl)pyridin-2-yl)oxy)cyclobutoxy)piperidin-1-yl)methyl)piperidin-1-yl)isoxazol-5-yl)-3-methylbutanoyl)-4-hydroxy-N-((S)-1-(4-(4-methylthiazol-5-yl)phenyl)ethyl)pyrrolidine-2-carboxamide] | < 2.5 nM | – | Dmax [2]: > 75%
Cc1ncsc1-c1ccc([C@H](C)NC(=O)[C@@H]2C[C@@H](O)CN2C(=O)[C@@H](c2onc(OCCN3CCC(O[C@H]4C[C@H](Oc5cc(N6C7CCC6CN(c6cc(-c8ccccc8O)nnc6N)C7)ccn5)C4)CC3)c2Cl)C(C)C)cn1 [compound 223, (2S,4R)-1-((2R)-2-(3-(2-(4-((1r,3R)-3-((4-(3-(3-amino-6-(2-hydroxyphenyl)pyridazin-4-yl)-3,8-diazabicyclo[3.2.1]octan-8-yl)pyridin-2-yl)oxy)cyclobutoxy)piperidin-1-yl)ethoxy)-4-chloroisoxazol-5-yl)-3-methylbutanoyl)-4-hydroxy-N-((S)-1-(6-(4-methylthiazol-5-yl)pyridin-3-yl)ethyl)pyrrolidine-2-carboxamide] | 2.5 to 10 nM | > 75% | –
Cc1cc([C@@H](C(=O)N2C[C@H](O)C[C@H]2C(=O)N[C@H](COCCOCCNc2ccc(-c3ccccc3O)nn2)c2ccc(-c3scnc3C)cc2)C(C)C)on1 [compound 523, (2S,4R)-4-hydroxy-N-((S)-2-(2-(2-((6-(2-hydroxyphenyl)pyridazin-3-yl)amino)ethoxy)ethoxy)-1-(4-(4-methylthiazol-5-yl)phenyl)ethyl)-1-((S)-3-methyl-2-(3-methylisoxazol-5-yl)butanoyl)pyrrolidine-2-carboxamide] | – | – | DC50 (BRM degradation, read-out: BRM DC50): > 30 nM
Cc1ncsc1-c1ccc([C@H](C)NC(=O)[C@@H]2C[C@@H](O)CN2C(=O)[C@@H](c2cc(O[C@H]3C[C@H](CN4CCC(O[C@H]5C[C@H](Oc6cc(N7C8CCC7CN(c7cc(-c9ccccc9O)nnc7N)C8)ccn6)C5)CC4)C3)no2)C(C)C)cc1 [compound 242, (2S,4R)-1-((2R)-2-(3-((1R,3R)-3-((4-((1r,3R)-3-((4-(3-(3-amino-6-(2-hydroxyphenyl)pyridazin-4-yl)-3,8-diazabicyclo[3.2.1]octan-8-yl)pyridin-2-yl)oxy)cyclobutoxy)piperidin-1-yl)methyl)cyclobutoxy)isoxazol-5-yl)-3-methylbutanoyl)-4-hydroxy-N-((S)-1-(4-(4-methylthiazol-5-yl)phenyl)ethyl)pyrrolidine-2-carboxamide] | < 2.5 nM | > 75% | –
C#Cc1ccc([C@H](C)NC(=O)[C@@H]2C[C@@H](O)CN2C(=O)[C@@H](c2cc(N3CCC(CN4CCC(O[C@H]5C[C@H](Oc6cc(N7C8CCC7CN(c7cc(-c9ccccc9O)nnc7N)C8)ccn6)C5)CC4)CC3)no2)C(C)C)cc1 [compound 678, (2S,4R)-1-((2R)-2-(3-(4-((4-((1r,3r)-3-((4-(3-(3-amino-6-(2-hydroxyphenyl)pyridazin-4-yl)-3,8-diazabicyclo[3.2.1]octan-8-yl)pyridin-2-yl)oxy)cyclobutoxy)piperidin-1-yl)methyl)piperidin-1-yl)isoxazol-5-yl)-3-methylbutanoyl)-N-((S)-1-(4-ethynylphenyl)ethyl)-4-hydroxypyrrolidine-2-carboxamide] | < 2.5 nM | – | Dmax [2]: > 75%
Cc1ncsc1-c1ccc([C@H](C)NC(=O)[C@@H]2C[C@@H](O)CN2C(=O)[C@H](c2cc(OC/C=C/c3ccc(O[C@H]4C[C@H](Oc5cc(N6C7CCC6CN(c6cc(-c8ccccc8O)nnc6N)C7)ccn5)C4)cn3)no2)C(C)C)cc1 [compound 186, (2S,4R)-1-((2S)-2-(3-(((E)-3-(5-((1r,3S)-3-((4-(3-(3-amino-6-(2-hydroxyphenyl)pyridazin-4-yl)-3,8-diazabicyclo[3.2.1]octan-8-yl)pyridin-2-yl)oxy)cyclobutoxy)pyridin-2-yl)allyl)oxy)isoxazol-5-yl)-3-methylbutanoyl)-4-hydroxy-N-((S)-1-(4-(4-methylthiazol-5-yl)phenyl)ethyl)pyrrolidine-2-carboxamide] | 10 to 30 nM | > 75% | –
Cc1ncsc1-c1ccc(CNC(=O)[C@@H]2C[C@@H](O)CN2C(=O)[C@@H](NC(=O)COCCOCCOCCOCCOCCOCCn2cc(-c3cc(-c4ccccc4O)nnc3N)cn2)C(C)(C)C)cc1 [compound 3, (2S,4R)-1-((S)-23-(4-(3-amino-6-(2-hydroxyphenyl)pyridazin-4-yl)-1H-pyrazol-1-yl)-2-(tert-butyl)-4-oxo-6,9,12,15,18,21-hexaoxa-3-azatricosanoyl)-4-hydroxy-N-(4-(4-methylthiazol-5-yl)benzyl)pyrrolidine-2-carboxamide] | > 30 nM | – | Dmax [4]: > 75%
Cc1ncsc1-c1ccc([C@H](C)NC(=O)[C@@H]2C[C@@H](O)CN2C(=O)[C@H](c2cc(OCCN3CCN(CCC#CCn4cc(-c5cc(-c6ccccc6O)nnc5N)cn4)CC3)no2)C(C)C)cn1 [compound 197, (2S,4R)-1-((S)-2-(3-(2-(4-(5-(4-(3-amino-6-(2-hydroxyphenyl)pyridazin-4-yl)-1H-pyrazol-1-yl)pent-3-yn-1-yl)piperazin-1-yl)ethoxy)isoxazol-5-yl)-3-methylbutanoyl)-4-hydroxy-N-((S)-1-(6-(4-methylthiazol-5-yl)pyridin-3-yl)ethyl)pyrrolidine-2-carboxamide] | > 30 nM | – | –
Cc1nccn1-c1ccc([C@H](C)NC(=O)[C@@H]2C[C@@H](O)CN2C(=O)[C@@H](c2cc(N3CCC(CN4CCC(O[C@H]5C[C@H](C#C[C@@H](C)n6cc(-c7cc(-c8ccccc8O)nnc7N)cn6)C5)CC4)CC3)no2)C(C)C)cc1 (single isomer, unassigned) [compound 638] | < 2.5 nM | – | Dmax [2]: > 75%
COCCOCCOCCOCCOCCOCCOCCOCCOCCOCCOCCOCCOCCOCCOCCOCCOCCOCCOCCOCCOCCOCCOC(=O)CCC(=O)O[C@@H]1C[C@@H](C(=O)N[C@@H](C)c2ccc(-c3scnc3C)cc2)N(C(=O)[C@@H](c2cc(OCCN3CCC(O[C@H]4C[C@H](Oc5cc(N6C7CCC6CN(c6cc(-c8ccccc8O)nnc6N)C7)ccn5)C4)CC3)no2)C(C)C)C1 [compound 460, (3R,5S)-1-((2R)-2-(3-(2-(4-((1r,3R)-3-((4-(3-(3-amino-6-(2-hydroxyphenyl)pyridazin-4-yl)-3,8-diazabicyclo[3.2.1]octan-8-yl)pyridin-2-yl)oxy)cyclobutoxy)piperidin-1-yl)ethoxy)isoxazol-5-yl)-3-methylbutanoyl)-5-(((S)-1-(4-(4-methylthiazol-5-yl)phenyl)ethyl)carbamoyl) pyrrolidin-3-yl (2,5,8,11,14,17,20,23,26,29,32,3 5,38,41,44,47,50,53,56,59,62,65-docosaoxaheptahexacontan-67-yl) succinate] | – | – | Dmax (SW1573, % degraded, when tested at the top concentration of between 0.3 and 10 μM, read-out: BRM Dmax (%)): > 75%; DC50 (target protein degradation, read-out: BRM DC50): < 2.5 nM
CC(C)[C@@H](C(=O)N1C[C@H](O)C[C@H]1C(=O)N[C@@H](C)c1ccc(C#N)cc1)c1cc(N2CCC(CN3CCC(O[C@H]4C[C@H](C#C[C@@H](C)n5cc(-c6cc(-c7ccccc7O)nnc6N)cn5)C4)CC3)CC2)no1 (single isomer, unassigned) [compound 698] | < 2.5 nM | – | Dmax [2]: > 75%
Cc1ncsc1-c1ccc([C@H](C)NC(=O)[C@@H]2C[C@@H](O)CN2C(=O)[C@@H](c2cc(OCCOCCOCCCCN3CCC4(CCN(c5cc(-c6ccccc6O)nnc5N)CC4)C3)no2)C(C)C)cc1 [compound 74, (2S,4R)-1-((R)-2-(3-(2-(2-(4-(8-(3-amino-6-(2-hydroxyphenyl)pyridazin-4-yl)-2,8-diazaspiro[4.5]decan-2-yl)butoxy)ethoxy)ethoxy)isoxazol-5-yl)-3-methylbutanoyl)-4-hydroxy-N-((S)-1-(4-(4-methylthiazol-5-yl)phenyl)ethyl)pyrrolidine-2-carboxamide] | 10 to 30 nM | – | Dmax [4]: > 75%
COc1cc(-c2scnc2C)ccc1CNC(=O)[C@@H]1C[C@@H](O)CN1C(=O)[C@@H](c1cc(OCCN2CCC(O[C@H]3C[C@H](Oc4cc(N5C6CCC5CN(c5cc(-c7ccccc7O)nnc5N)C6)ccn4)C3)CC2)no1)C(C)C [compound 215, (2S,4R)-1-((2R)-2-(3-(2-(4-((1r,3R)-3-((4-(3-(3-amino-6-(2-hydroxyphenyl)pyridazin-4-yl)-3,8-diazabicyclo[3.2.1]octan-8-yl)pyridin-2-yl)oxy)cyclobutoxy)piperidin-1-yl)ethoxy)isoxazol-5-yl)-3-methylbutanoyl)-4-hydroxy-N-(2-methoxy-4-(4-methylthiazol-5-yl)benzyl)pyrrolidine-2-carboxamide] | < 2.5 nM | > 75% | –
Cc1ncsc1-c1ccc([C@@H](NC(=O)[C@@H]2C[C@@H](O)CN2C(=O)[C@H](c2cc(OCCN3CCN(CCOc4cc(N5C6CCC5CN(c5cc(-c7ccccc7O)nnc5N)C6)ccn4)CC3)no2)C(C)C)C(=O)N(C)C2CCC2)cc1 [compound 245, (2S,4R)-1-((2S)-2-(3-(2-(4-(2-((4-(3-(3-amino-6-(2-hydroxyphenyl)pyridazin-4-yl)-3,8-diazabicyclo[3.2.1]octan-8-yl)pyridin-2-yl)oxy)ethyl)piperazin-1-yl)ethoxy)isoxazol-5-yl)-3-methylbutanoyl)-N-((R)-2-(cyclobutyl(methyl)amino)-1-(4-(4-methylthiazol-5-yl)phenyl)-2-oxoethyl)-4-hydroxypyrrolidine-2-carboxamide] | 2.5 to 10 nM | > 75% | –
